Laboratory results published in publication PMC4535766, “Antiprotozoal Activity Profiling of Approved Drugs: A Starting Point toward Drug Repositioning” (PLoS ONE, 2015).
Like-named read-outs stand apart in the source and are kept apart here.

Legend:
T. brucei = test system: T. brucei; parameters: method as in PMID 11302796; details: cited from earlier work
L6 cells = assay: Cytotoxicity on L6 cells
Procedure: (§1) Drug stock solutions (10mg/ml) were in DMSO (100%). […] Selectivity index (SI) was calculated as IC50 L6 cells/IC50 parasite.

[1] = test system: T. cruzi, strain Tulahuen C4, intracellular amastigotes; assay: microbe, parasite or virus in culture; details: for IC50: read-out: IC50 T. cruzi; for selectivity ratio: rat, Selectivity index: IC50 Cytotoxicity L6/ IC50 T. cruzi
Procedure: as §1

[2] = test system: intracellular amastigotes of L. donovani strain MHOM-ET-67/L82; assay: Activity against Leishmania donovani intracellular amastigotes in mouse peritoneal macrophages; details: for IC50: read-out: IC50 L. don. intracell
Summary of the method: (§2)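 Axenic amastigotes grown at pH 5.4 infected mouse peritoneal macrophages for 4 h before free parasites were washed off. Next day, seven 3-fold drug dilutions (30–0.04 μg/ml) were added for 96 h. Giemsa-stained infected macrophages were counted, burden reduction was taken vs untreated controls, and IC50 came from linear regression.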

[3] = test system: axenic amastigotes of L. donovani, strain MHOM-ET-67/L82; assay: In vitro activity against L. donovani axenic amastigotes, serial drug dilution assay; format: cell-based, Leishmania donovani; details: axenic amastigotes, strain MHOM-ET-67/L82, means of two independent assays, read-out: IC50 L. don. axen.
Procedure: as §1

P. falciparum strain K1 = assay: In vitro activity against P. falciparum, serial drug dilution assay
Procedure: as §1

[4] = parameters: method as in PMID 6813497; details: cited from earlier work
Entamoeba histolytica = details: cited from earlier work
[5] = test system: T. b. rhodesiense strain STIB 900, trypomastigotes; assay: in vitro; details: for IC50: read-out: IC50 T. b. rhod.
Procedure: as §1

[6] = test system: T.b.rhodesiense (STIB900); assay: T.b.rhodesiense (STIB900) acute mouse model; format: in vivo; details: daily oral administration of up to 25 mg/kg over a 4 day period, acutely infected mouse model
Procedure: The STIB900 acute mouse model mimics the first stage of the disease. Four female NMRI mice were used per experimental group. Each mouse was inoculated i.p. with 10^4 bloodstream forms of STIB900, respectively. Heparinized blood from a donor mouse with approximately 5x10^6 /ml parasitaemia was suspended in PSG to obtain a trypanosome suspension of […]. Each mouse was injected with 0.25 ml. Compounds were formulated in 100% DMSO, diluted 10-fold in distilled water. Compound treatment was initiated 3 days post-infection on four consecutive days for all administration routes (i.p., p.o.) in a volume of 0.1 ml/10 g. Three mice served as infected-untreated controls. […] Parasitaemia was monitored using smears of tail-snip blood twice a week after treatment for two weeks followed by once a week until 60 days post-infection. Mice are considered cured when there is no parasitaemia relapse detected in the tail blood over the 60-day observation period. Mean relapse days were determined as day of relapse post-infection of mice.

[7] = test system: macrophages infected with L. donovani; assay: Cytotoxicity on macrophages infected with L. donovani; format: cell-based, mouse
Procedure: (§3) After 24 h 1.2 x 10^5 amastigote L. donovani in 100 μl were added. The amastigotes were taken from an axenic culture grown at pH 5.4. Four hours later, the medium containing free amastigote forms was removed and replaced by fresh medium. The next day the medium was replaced by medium with or without a serial drug dilution of seven 3-fold dilution steps covering a range from 30 to 0.04 μg/ml. Parasite growth in the presence of the drug was compared to control wells. After 96 h of incubation, the medium was removed and the slides fixed with methanol for 10 min followed by staining with a 10% Giemsa solution. Infected and non-infected macrophages were counted for the control cultures and those exposed to the serial drug dilutions. The infection rates were determined. The results were expressed as a percentage reduction in parasite burden compared to control wells, and the IC50 was calculated by linear regression analysis.

in vitro = details: rat
Procedure: as §1

[8] = test system: L. donovani strain MHOM-ET-67/L82 amastigotes; assay: Activity against Leishmania donovani intracellular amastigotes in mouse peritoneal macrophages; details: mouse, Selectivity index: IC50 Cytotoxicity macrophages/ IC50 L. donovani
Summary of the method: as §2

[9] = Cytotoxicity on macrophages infected with L. donovani; format: cell-based, mouse; details: mouse, macrophages infected with L. donovani, read-out: IC50 Cytotox. mac.inf.
Procedure: as §3

[10] = In vitro cytotoxicity with mouse peritoneal macrophages (Alamar Blue); format: cell-based; details: mouse
Procedure: After 96 h of incubation, the plates were inspected under an inverted microscope to assure sterility. […] The IC50 values were calculated by linear regression from the sigmoidal dose inhibition curves using SoftmaxPro software (Molecular Devices Cooperation, Sunnyvale, CA, USA).

[11] = read-out: IC50 Cytotox. L6, L6 cells, means of two independent assays
[12] = strain Tulahuen C4, intracellular amastigotes, means of two independent assays
[13] = intracellular amastigotes in mouse peritoneal macrophages, strain MHOM-ET-67/L82, 96 h
[14] = read-out: IC50 P. falc. K1, strain K1, means of two independent assays
[15] = rats, oral single dose 6.7 mg /kg
[16] = strain STIB 900, trypomastigotes, means of two independent assays
[17] = macrophages infected with L. donovani, read-out: IC50 Cytotox. mac.inf.
[18] = Leishmania donovani, Peritoneal macrophage, in Mus musculus, 96 h
[19] = Plasmodium falciparum, K1, read-out: IC50 P. falc. K1
[20] = L6 cells, IC50 Cytotox. L6, L6 cells, means of two independent assays

Row | Molecule | IC50 (L6 cells; [11]) | IC50 [2, 13] | IC50 [3] | IC50 (P. falciparum strain K1; [14]) | IC50 [5, 16] | IC50 [7, 17] | IC50 ([1]; Trypanosoma cruzi, TULAHUEN) | IC50 [2, 18] | IC50 ([3]; Leishmania donovani) | IC50 ([5]; Trypanosoma brucei) | IC50 at 96 h [9] | also measured
1 | NC1CCC(C23CC4CC(CC(C4)C2)C3)CC1 (stereo not shown) [1-adamantyl-4-amino-cyclohexane] | – | – | – | – | – | – | – | – | – | – | – | Times more effective than rimantadine (T. brucei): 20 to 25 times
2 | CC(=O)OC[C@H]1O[C@@H]([S-])[C@H](OC(C)=O)[C@@H](OC(C)=O)[C@@H]1OC(C)=O.CCP(CC)CC.[Au+] [Auranofin] | 4.79 µM | > 1.47 µM | 0.11 µM | 1.67 µM | 0.01 µM | 4.42 µM | – | – | – | – | – | IC50 [1, 12]: 2.27 µM; Activity against intracellular amastigotes at a fixed concentration [2]: did not exhibit activity; Bioavailability [4]: 17–23%; Terminal half-life based on blood levels [4, 15]: 29 h; Terminal half-life based on serum levels [4, 15]: 43 h; Times better activity against Entamoeba histolytica than the standard drug metronidazole (Entamoeba histolytica): 10 times; Selectivity index: IC50 Cytotoxicity L6/ IC50 T. b. rhodesiense [5]: 479; In vivo efficacy (reduction of parasitemia or increased survival time) [6]: no in vivo efficacy was observed
3 | Cc1cc(C2CCCCC2)n(O)c(=O)c1 [Ciclopirox olamine] | – | – | – | – | – | > 11.2 µM | 2.49 µM | 9.09 µM | 1.64 µM | 0.8 µM | 20.3 µM | IC50 (in vitro; IC50 Cytotox. L6): 1.04 µM; selectivity ratio at 96 h ([8]; mouse peritoneal macrophages versus L. donovani amastigotes, axenic or intracellular IC50 not specified): 9; IC50 (P. falciparum strain K1; [19]): 3.75 µM; IC50 at 96 h [10]: 20.3 µM
4 | OC(Cn1cncn1)(Cn1cncn1)c1ccc(F)cc1F [Fluconazole] | > 294 µM | – | – | – | – | – | 9.96 µM | > 98 µM | 211 µM | 273 µM | > 98 µM | IC50 (in vitro; [20]): > 294 µM; selectivity ratio [1]: > 30
5 | NNC(=O)c1ccncc1 [Izoniazide] | – | > 219 µM | > 656 µM | > 36.5 µM | > 656 µM | – | – | – | – | – | – | IC50 (L6 cells): > 656 µM; IC50 [7]: > 219 µM
6 | CC1CS(=O)(=O)CCN1/N=C/c1ccc([N+](=O)[O-])o1 (stereo not shown) [Nifurtimox] | – | – | – | – | – | > 34.8 µM | 0.19 µM | 20.7 µM | 2.76 µM | 1.44 µM | 34.8 µM | IC50 (in vitro; IC50 Cytotox. L6): 87 µM; selectivity ratio [1]: 458; selectivity ratio at 96 h [8]: 13; Activity against T. b. rhodesiense (in words) ([5]; in vitro): active; selectivity ratio ([5]; rat, Selectivity index: IC50 Cytotoxicity L6/ IC50 T. b. rhodesiense): 60; IC50 at 96 h [10]: 15.7 µM
7 | CCC[C@@]1(CCc2ccccc2)CC(O)=C([C@H](CC)c2cccc(NS(=O)(=O)c3ccc(C(F)(F)F)cn3)c2)C(=O)O1 [Tipranavir] | – | – | 1.64 µM | – | – | > 49.8 µM | 28.2 µM | > 49.8 µM | < 3 µM | 26.4 µM | – | IC50 (in vitro; [20]): 53.4 µM; selectivity ratio at 96 h [8]: > 30; IC50 (P. falciparum strain K1; [19]): 44.6 µM; IC50 at 96 h ([9]; mouse peritoneal macrophages infected with L. donovani): > 50 µM
8 | Bacitracine | 42.2 µM | > 21.1 µM | > 70.3 µM | 19.8 µM | > 70.3 µM | – | – | – | – | – | – | IC50 [1, 12]: 47.1 µM
